This note sets out measurements from ChEMBL document CHEMBL1129671, “Substituted (pyrroloamino)pyridines: potential agents for the treatment of Alzheimer's disease” (J Med Chem, 1996).

The structures appear in SMILES notation.

Assay [1] has as its system Mus musculus. Description: Antagonistic activity against scopolamine-induced behavioral deficits in mice by subcutaneous administration at a concentration of 1.25 mg/kg. It is filed as functional.
Assay [2] addresses T1, Muscarinic acetylcholine receptor M1 (Rattus norvegicus, UniProt P08482).
T1 sequence (P08482 whole entry): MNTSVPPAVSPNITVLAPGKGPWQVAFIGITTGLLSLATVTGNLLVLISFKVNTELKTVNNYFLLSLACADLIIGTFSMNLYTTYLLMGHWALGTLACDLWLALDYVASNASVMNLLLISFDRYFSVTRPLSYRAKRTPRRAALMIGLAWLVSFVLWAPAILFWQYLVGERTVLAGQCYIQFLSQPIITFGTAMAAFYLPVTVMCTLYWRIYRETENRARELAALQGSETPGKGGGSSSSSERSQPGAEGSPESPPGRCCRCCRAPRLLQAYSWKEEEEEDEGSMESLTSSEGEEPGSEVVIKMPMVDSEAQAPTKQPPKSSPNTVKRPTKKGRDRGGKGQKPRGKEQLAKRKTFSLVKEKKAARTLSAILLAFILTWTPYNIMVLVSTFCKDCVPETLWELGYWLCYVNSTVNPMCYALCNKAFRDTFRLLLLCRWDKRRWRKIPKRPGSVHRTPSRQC
Description: Compound was tested for inhibition of [3H]pirenzepine binding against Muscarinic acetylcholine receptor M1 from rat cortical membranes using in vitro cholinergic receptor binding assay. Format: cell membranes, Membrane.

The test system of assay [3] is Mus musculus. Nature of the assay: Antagonistic activity against scopolamine-induced behavioral deficits in mice by subcutaneous administration at a concentration of 0.16 mg/kg. It is filed as functional.
Assay [4] has as its system Mus musculus. Description: Antagonistic activity against scopolamine-induced behavioral deficits in mice by subcutaneous administration at a concentration of 5.0 mg/kg. It is filed as functional.
The species entered for assay [5] is Rattus norvegicus. Description: Compound was tested for inhibition of [3H]norepinephrine against rat whole brain using in vitro biogenic amine uptake assay using rat brain synaptosomes. Format: functional.
Assay [6] deals with Mus musculus. Description: Antagonistic activity against scopolamine-induced behavioral deficits in mice by subcutaneous administration at a concentration of 2.5 mg/kg. It is filed as functional.
For assay [7], the system named is Mus musculus. Nature of the assay: Antagonistic activity against scopolamine-induced behavioral deficits in mice by subcutaneous administration at a concentration of 0.63 mg/kg. Format: functional.
The species named for assay [8] is Rattus norvegicus. Description: Compound was tested for inhibition of [3H]dopamine against rat striatum using in vitro biogenic amine uptake assay using rat brain synaptosomes. Format: functional.
The test system of assay [9] is Mus musculus. Nature of the assay: Evaluated for the prevention of TBZ ptosis by intraperitoneal administration in mice. It is filed as functional. To be noted: ip.
Assay [10] deals with T2, Adrenergic receptor alpha-2 (Rattus norvegicus, UniProt P22086+P19328+P22909).
T2 sequence (P22086 whole entry): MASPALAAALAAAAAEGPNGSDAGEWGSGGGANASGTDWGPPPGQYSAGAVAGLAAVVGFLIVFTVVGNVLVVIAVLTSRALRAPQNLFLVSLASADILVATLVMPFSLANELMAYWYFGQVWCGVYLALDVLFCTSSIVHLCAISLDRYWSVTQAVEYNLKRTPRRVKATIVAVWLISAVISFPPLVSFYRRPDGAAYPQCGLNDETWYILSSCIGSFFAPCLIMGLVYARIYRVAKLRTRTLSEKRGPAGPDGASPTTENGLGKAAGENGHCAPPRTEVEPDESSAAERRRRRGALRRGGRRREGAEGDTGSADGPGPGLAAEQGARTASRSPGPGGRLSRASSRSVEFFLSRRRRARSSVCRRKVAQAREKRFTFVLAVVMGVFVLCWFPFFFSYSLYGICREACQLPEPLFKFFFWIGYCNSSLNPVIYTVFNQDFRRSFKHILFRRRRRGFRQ
T2 sequence (P19328 whole entry): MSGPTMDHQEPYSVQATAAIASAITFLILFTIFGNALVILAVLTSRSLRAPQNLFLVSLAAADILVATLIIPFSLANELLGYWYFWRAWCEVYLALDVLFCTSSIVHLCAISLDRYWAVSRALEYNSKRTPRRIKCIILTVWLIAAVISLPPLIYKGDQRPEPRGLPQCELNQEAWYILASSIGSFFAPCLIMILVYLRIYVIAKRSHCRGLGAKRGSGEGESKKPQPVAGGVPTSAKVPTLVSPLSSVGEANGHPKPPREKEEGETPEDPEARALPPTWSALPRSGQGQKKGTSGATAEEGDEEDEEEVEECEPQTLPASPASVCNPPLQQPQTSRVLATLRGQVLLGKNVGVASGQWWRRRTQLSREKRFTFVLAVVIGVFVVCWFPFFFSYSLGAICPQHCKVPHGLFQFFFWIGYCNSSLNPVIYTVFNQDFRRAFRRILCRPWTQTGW
T2 sequence (P22909 whole entry): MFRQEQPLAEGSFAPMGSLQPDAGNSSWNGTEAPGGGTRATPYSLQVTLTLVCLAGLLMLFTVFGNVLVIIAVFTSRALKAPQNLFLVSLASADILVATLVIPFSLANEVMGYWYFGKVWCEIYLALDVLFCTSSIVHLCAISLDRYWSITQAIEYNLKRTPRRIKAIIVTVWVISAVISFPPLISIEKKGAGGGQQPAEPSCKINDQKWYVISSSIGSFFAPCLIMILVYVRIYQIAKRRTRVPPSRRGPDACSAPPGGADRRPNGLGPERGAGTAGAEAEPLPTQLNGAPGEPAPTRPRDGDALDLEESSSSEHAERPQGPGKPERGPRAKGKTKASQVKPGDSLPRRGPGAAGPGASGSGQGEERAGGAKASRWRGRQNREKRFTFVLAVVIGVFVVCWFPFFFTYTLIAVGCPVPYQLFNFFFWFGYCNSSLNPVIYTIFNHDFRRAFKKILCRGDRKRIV
Description: Compound was tested for inhibition of [3H]yohimbine against Alpha-2 adrenergic receptor from rat cortical membranes using in vitro adrenergic receptor binding assay. Format: cell membranes, Membrane.

The test system of assay [11] is Mus musculus. Description: Antagonistic activity against scopolamine-induced behavioral deficits in mice by subcutaneous administration at a concentration of 0.31 mg/kg. Format: functional.
The target in the next assay is T3, Acetylcholinesterase (Rattus norvegicus, UniProt P37136).
T3 sequence (P37136 whole entry): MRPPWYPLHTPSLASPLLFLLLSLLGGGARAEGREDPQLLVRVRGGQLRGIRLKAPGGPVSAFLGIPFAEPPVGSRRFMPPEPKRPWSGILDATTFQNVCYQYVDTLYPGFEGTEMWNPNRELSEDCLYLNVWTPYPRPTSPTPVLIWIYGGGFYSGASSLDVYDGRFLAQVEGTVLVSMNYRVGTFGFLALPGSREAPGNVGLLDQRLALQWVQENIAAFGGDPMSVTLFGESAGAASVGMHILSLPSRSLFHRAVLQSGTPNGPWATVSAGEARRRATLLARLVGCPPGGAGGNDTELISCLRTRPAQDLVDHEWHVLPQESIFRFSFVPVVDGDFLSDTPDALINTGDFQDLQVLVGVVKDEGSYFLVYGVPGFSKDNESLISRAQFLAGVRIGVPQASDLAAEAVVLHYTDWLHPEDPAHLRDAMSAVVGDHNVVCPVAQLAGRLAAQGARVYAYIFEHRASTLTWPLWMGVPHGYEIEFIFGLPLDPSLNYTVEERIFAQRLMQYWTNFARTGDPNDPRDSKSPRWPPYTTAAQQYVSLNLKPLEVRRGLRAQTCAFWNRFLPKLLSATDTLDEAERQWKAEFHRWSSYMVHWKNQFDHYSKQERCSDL
Description: In vitro inhibition of Acetylcholinesterase from rat striatum.

As for `C=Cc1cccn1N(C)c1ccncc1`, the Response with Mus musculus [1] is listed as 33%; with Mus musculus [3] it was 27%; in the assay with Mus musculus [4], 20%; in the assay on Mus musculus [6], 27%; with Mus musculus [7], 33%; in the assay on Mus musculus [11], 33%. The IC50 was 5.1 µM in assay [2]; 14 µM in the assay filed under Rattus norvegicus [5]; above 20 µM in the assay filed under Rattus norvegicus [8]; 0.95 µM in assay [10]; above 100 µM at Acetylcholinesterase. In the assay with Mus musculus [9], this compound registered an ED50 of 8.3 mg/kg.

What is called IC50 is the concentration that gives 50% inhibition. The low end stands for inhibition by little substance, the high end for a need for much substance. By ED50 is commonly meant the midpoint of the dose-response relation.
